Experiment [1] concerns Staphylococcus aureus. Kind of experiment: Antibacterial activity against methicillin sensitive Staphylococcus aureus SA113 assessed as increase in membrane permeability at 1 to 4 times MIC incubated for 30 mins by PI staining based fluorescence assay. The format is functional, organism-based.
Experiment [2] relates to Staphylococcus aureus. Kind of experiment: Antibacterial activity against methicillin sensitive Staphylococcus aureus SA113 assessed as fold increase in MIC in presence of peptidoglycan by chequerboard microdilution assay. The format is functional.
For experiment [3], the system named is Staphylococcus aureus. The experiment in a line: Antibacterial activity against methicillin sensitive Staphylococcus aureus CHS101. The format is functional.
Experiment [4] concerns Staphylococcus aureus. Kind of experiment: Induction of matured biofilm eradication in methicillin resistant Staphylococcus aureus YUSA145 assessed as log reduction in bacterial count in biofilm at 8 MIC incubated for 48 hrs in presence of daptomycin by agar plate method. The format is functional.
In experiment [5] the test system is Staphylococcus aureus. The experiment in a line: Bactericidal activity against methicillin resistant Staphylococcus aureus USA300 assessed as planktonic cells killing by measuring log reduction in bacterial count at 2 to 8 times MIC measured after 24 hrs. The format is functional.

Values after ≈ are worked out from the molar mass of the structure shown. Active and inactive are the calls of the source. No cut-off for these calls is given here.

What is called MIC is the least concentration at which growth counts as inhibited. High values mean a less susceptible organism, low ones a more susceptible organism.

For the compound `O=C(C1=C(O)C(=O)N(c2nnc(SCc3ccccc3Cl)s2)C1c1ccccc1O)c1cc2ccccc2o1` (stereo not given), the outcome with Staphylococcus aureus [1] was Active. In addition, the “fold change (FC)” value in the experiment on Staphylococcus aureus [2] is given as 16. The compound further came in with an MIC in the experiment on Staphylococcus aureus [3] of 12.5 µM (≈ 7.2 µg/mL). For the same compound, the entries for the “log(activity)” value with Staphylococcus aureus [4] and in the experiment with Staphylococcus aureus [5] were 3 and 2.7, respectively.

Source of the values: ChEMBL document CHEMBL5614418, “Discovery of novel dihydropyrrolidone-thiadiazole compound crosstalk between the YycG/F two-component regulatory pathway and cell membrane homeostasis to combat methicillin-resistant Staphylococcus aureus” (Eur J Med Chem, 2024).
